Data from PubChem BioAssay AID1259411 (Chemical Carcinogenesis Research Information System (CCRIS), 2018).
Activity calls are given as the source filed them. The rule behind the calls is not given here.

System: rodent carcinogenicity bioassays, tumor incidence
Assay: CCRIS carcinogenicity studies
Method in brief: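 Archive of carcinogenicity, mutagenicity, tumor promotion and tumor inhibition results drawn from journals, NCI reports and other sources, expert-reviewed; covers 1985-2011 and is no longer updated.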

C=CC(=C)C was tested, and the carcinogen call (Species: MOUSE, Strain/Sex: B6C3F1/MALE, Route: INHALATION, Dose: 0, 10, 70, 280, 700, 2200 PPM 8 HR/D 5 D/WK FOR 80 WK (STUDY DURATION: 104 WK), Dose: 0, 10, 70, 280, 700, 2200 PPM 8 HR/D 5 D/WK FOR 80 WK (STUDY DURATION: 104 WK), Tumor Site: Type of Lesion: LUNG: ALVEOLAR/BRONCHIOLAR ADENOMA OR CARCINOMA, LIVER: HEPATOCELLULAR ADENOMA OR CARCINOMA, HARDERIAN GLAND: ADENOMA, Tumor Site: Type of Lesion: LUNG: ALVEOLAR/BRONCHIOLAR ADENOMA OR CARCINOMA, LIVER: HEPATOCELLULAR ADENOMA OR CARCINOMA, HARDERIAN GLAND: ADENOMA) was “active; positive”, the carcinogen call (Species: MOUSE, Strain/Sex: B6C3F1/MALE, Route: INHALATION, Dose: 0, 70, 140, 2200 PPM 8 HR/D 5 D/WK FOR 40 WK (STUDY DURATION: 104 WK), Dose: 0, 70, 140, 2200 PPM 8 HR/D 5 D/WK FOR 40 WK (STUDY DURATION: 104 WK), Tumor Site: Type of Lesion: LUNG: ALVEOLAR/BRONCHIOLAR ADENOMA OR CARCINOMA, LIVER: HEPATOCELLULAR ADENOMA OR CARCINOMA, HARDERIAN GLAND: ADENOMA, Tumor Site: Type of Lesion: LUNG: ALVEOLAR/BRONCHIOLAR ADENOMA OR CARCINOMA, LIVER: HEPATOCELLULAR ADENOMA OR CARCINOMA, HARDERIAN GLAND: ADENOMA) was “active; positive” and the carcinogen call (Species: MOUSE, Strain/Sex: B6C3F1/MALE, Route: INHALATION, Dose: 0, 70, 220, 700, 2200, 7000 PPM 6 HR/D 5 D/WK FOR 26 WK FOLLOWED BY A 26-WK RECOVERY PERIOD (STUDY DURATION: 52 WK), Dose: 0, 70, 220, 700, 2200, 7000 PPM 6 HR/D 5 D/WK FOR 26 WK FOLLOWED BY A 26-WK RECOVERY PERIOD (STUDY DURATION: 52 WK), Tumor Site: Type of Lesion: LIVER: ADENOMA OR CARCINOMA, LUNG: ALVEOLAR/BRONCHIOLAR ADENOMA OR CARCINOMA, FORESTOMACH: PAPILLOMA OR CARCINOMA, HARDE, Tumor Site: Type of Lesion: LIVER: ADENOMA OR CARCINOMA, LUNG: ALVEOLAR/BRONCHIOLAR ADENOMA OR CARCINOMA, FORESTOMACH: PAPILLOMA OR CARCINOMA, HARDE) was “active; positive”. For the same molecule, the carcinogen call (Species: MOUSE, Strain/Sex: B6C3F1/MALE, Route: INHALATION, Dose: 0, 280 PPM 8 HR/D 5 D/WK FOR 20 WK (STUDY DURATION: 104 WK), Tumor Site: Type of Lesion: HARDERIAN GLAND: ADENOMA, LIVER: ADENOMA) was “active; positive”, the carcinogen call (Species: MOUSE, Strain/Sex: B6C3F1/MALE, Route: INHALATION, Dose: 0, 2200 PPM 4 HR/D 5 D/WK FOR 20 WK (STUDY DURATION: 104 WK), Tumor Site: Type of Lesion: HARDERIAN GLAND: ADENOMA, LIVER: HEPATOCELLULAR ADENOMA OR CARCINOMA) was “active; positive” and the carcinogen call (Species: MOUSE, Strain/Sex: B6C3F1/MALE, Route: INHALATION, Dose: 0, 2200 PPM 4 HR/D 5 D/WK FOR 80 WK (STUDY DURATION: 104 WK), Tumor Site: Type of Lesion: LIVER: HEPATOCELLULAR ADENOMA OR CARCINOMA, HARDERIAN GLAND: ADENOMA) was “active; positive”. The carcinogen call (Species: RAT, Strain/Sex: F344/N/FEMALE, Route: INHALATION, Dose: 0, 220, 700, 7000 PPM 6 HR/D 5 D/WK FOR 105 WK (STUDY DURATION: 105 WK), Dose: 0, 220, 700, 7000 PPM 6 HR/D 5 D/WK FOR 105 WK (STUDY DURATION: 105 WK), Tumor Site: Type of Lesion: MAMMARY GLAND: FIBROADENOMA) was “active; positive” and the carcinogen call (Species: RAT, Strain/Sex: F344/N/MALE, Route: INHALATION, Dose: 0, 220, 700, 7000 PPM 6 HR/D 5 D/WK FOR 105 WK (STUDY DURATION: 105 WK), Dose: 0, 220, 700, 7000 PPM 6 HR/D 5 D/WK FOR 105 WK (STUDY DURATION: 105 WK), Tumor Site: Type of Lesion: KIDNEY: ADENOMA OR CARCINOMA, MAMMARY GLAND: FIBROADENOMA OR CARCINOMA, TESTES: ADENOMA, Tumor Site: Type of Lesion: KIDNEY: ADENOMA OR CARCINOMA, MAMMARY GLAND: FIBROADENOMA OR CARCINOMA, TESTES: ADENOMA) was “active; positive”.
Clc1cc2c(cc1Cl)Oc1cc(Cl)c(Cl)cc1O2 was tested, and the carcinogen call (Species: MOUSE, Strain/Sex: B6C3/FEMALE, Route: GAVAGE, Dose: 0, 2.5, 5 UG/KG IN CORN OIL 1/WK FOR 52 WK (STUDY DURATION: 110 WK), Dose: 0, 2.5, 5 UG/KG IN CORN OIL 1/WK FOR 52 WK (STUDY DURATION: 110 WK), Tumor Site: Type of Lesion: LIVER: HEPATOCELLULAR ADENOMA, HEPTOCELLULAR CARCINOMA) was “active; positive”, the carcinogen call (Species: MOUSE, Strain/Sex: B6C3/FEMALE, Route: INTRAPERITONEAL, Dose: 0, 1, 30, 60, UG/KG 1/WK FOR 5 WK BEGINNING AT 10 D OF AGE (STUDY DURATION: 78 WK), Dose: 0, 1, 30, 60, UG/KG 1/WK FOR 5 WK BEGINNING AT 10 D OF AGE (STUDY DURATION: 78 WK), Tumor Site: Type of Lesion: LIVER: HEPATOCELLULAR ADENOMA, THYMUS: LYMPHOMA) was “active; positive” and the carcinogen call (Species: MOUSE, Strain/Sex: B6C3/MALE, Route: GAVAGE, Dose: 0, 2.5, 5 UG/KG IN CORN OIL 1/WK FOR 52 WK (STUDY DURATION: 110 WK), Dose: 0, 2.5, 5 UG/KG IN CORN OIL 1/WK FOR 52 WK (STUDY DURATION: 110 WK), Tumor Site: Type of Lesion: LIVER: HEPATOCELLULAR CARCINOMA) was “active; positive”. The carcinogen call (Species: MOUSE, Strain/Sex: B6C3/MALE, Route: INTRAPERITONEAL, Dose: 0, 1, 30, 60, UG/KG 1/WK FOR 5 WK BEGINNING AT 10 D OF AGE (STUDY DURATION: 78 WK), Dose: 0, 1, 30, 60, UG/KG 1/WK FOR 5 WK BEGINNING AT 10 D OF AGE (STUDY DURATION: 78 WK), Tumor Site: Type of Lesion: LIVER: HEPATOCELLULAR ADENOMA, HEPTOCELLULAR CARCINOMA, THYMUS: LYMPHOMA) was “active; positive”, the carcinogen call (Species: MOUSE, Strain/Sex: B6C3F1/FEMALE, Route: GAVAGE, Dose: 0, 0.04, 0.2, 2.0 UG/KG SUSPENDED IN 9:1 CORN OIL-ACETONE, Dose: 0, 0.04, 0.2, 2.0 UG/KG SUSPENDED IN 9:1 CORN OIL-ACETONE, Tumor Site: Type of Lesion: LIVER: HEPATOCELLULAR CARCINOMA, THYROID GLAND: FOLLICULAR CELL ADENOMA) was “active; positive” and the carcinogen call (Species: MOUSE, Strain/Sex: B6C3F1/MALE, Route: GAVAGE, Dose: 0, 0.01, 0.05, 0.5 UG/KG SUSPENDED IN 9:1 CORN OIL-ACETONE, Dose: 0, 0.01, 0.05, 0.5 UG/KG SUSPENDED IN 9:1 CORN OIL-ACETONE, Tumor Site: Type of Lesion: LIVER: HEPATOCELLULAR CARCINOMA) was “active; positive”. For the same molecule, the carcinogen call (Species: MOUSE, Strain/Sex: SWISS/FEMALE, Route: DERMAL, Dose: 0.005 UG IN ACETONE SUSPENSION 3/WK FOR 99 OR 104 WK (STUDY DURATION: 99 OR 104 WK), Tumor Site: Type of Lesion: INTEGUMENTARY SYSTEM (SUBCUTANEOUS TISSUE): FIBROSARCOMA) was “active; positive”, the carcinogen call (Species: MOUSE, Strain/Sex: SWISS/MALE, Route: DERMAL, Dose: 0.001 UG IN ACETONE SUSPENSION 3/WK FOR 99 OR 104 WK (STUDY DURATION: 99 OR 104 WK), Tumor Site: Type of Lesion: INTEGUMENTARY SYSTEM (SUBCUTANEOUS TISSUE): FIBROSARCOMA) was “equivocal” and the carcinogen call (Species: RAT, Strain/Sex: OSBORNE-MENDEL/FEMALE, Route: GAVAGE, Dose: 0, 0.01, 0.05, 0.5 UG/KG SUSPENDED IN 9:1 CORN OIL-ACETONE, Dose: 0, 0.01, 0.05, 0.5 UG/KG SUSPENDED IN 9:1 CORN OIL-ACETONE, Tumor Site: Type of Lesion: LIVER: NEOPLASTIC NODULE) was “active; positive”. The carcinogen call (Species: RAT, Strain/Sex: OSBORNE-MENDEL/MALE, Route: GAVAGE, Dose: 0, 0.01, 0.05, 0.5 UG/KG SUSPENDED IN 9:1 CORN OIL-ACETONE, Dose: 0, 0.01, 0.05, 0.5 UG/KG SUSPENDED IN 9:1 CORN OIL-ACETONE, Tumor Site: Type of Lesion: THYROID GLAND: FOLLICULAR CELL ADENOMA) was “active; positive”, the carcinogen call (Species: RAT, Strain/Sex: SPRAGUE-DAWLEY/FEMALE, Route: ORAL, Dose: 0, 3, 10, 22, 46, 100 NG/KG/D (STUDY DURATION: 2 YRS), Dose: 0, 3, 10, 22, 46, 100 NG/KG/D (STUDY DURATION: 2 YRS), Tumor Site: Type of Lesion: ORAL MUCOSA: SQUAMOUS CELL CARCINOMA) was “active; positive; highest dose only” and the carcinogen call (Species: Rat, Strain/Sex: Harlan Sprague-Dawley/Female (50 dosed animals), Route: Gavage, Dose: 0, 100 ng/kg (Test material solvent: corn oil: acetone (99:1))) was “inactive; negative”. For the same molecule, the carcinogen call (Species: Rat, Strain/Sex: Harlan Sprague-Dawley/Female, Route: Gavage, Dose: 0, 3, 10, 22, 46, 100 ng/kg (Test material solvent: corn oil: acetone (99:1)), Dose: 0, 3, 10, 22, 46, 100 ng/kg (Test material solvent: corn oil: acetone (99:1)), Tumor Site: Type of Lesion: Liver: Hepatocellular adenoma (0/53, 0/54, 0/53, 1/53, 13/53, 2/50), Cholangiocarcinoma (0/53, 0/54, 0/53, 1/53, 4/53, 2) was “active; positive; findings in pancreas and in liver for hepatocholangioma and cholangiom” and the carcinogen call (Species: Rat, Strain/Sex: Spartan Sprague Dawley/Female (50/Experimental Group; 86 Controls), Route: Oral, Dose: 0, 1, 10, 100 ng/kg in food, 7 days a wk for 2 yr, Dose: 0, 1, 10, 100 ng/kg in food, 7 days a wk for 2 yr) was “active; positive”.
